Results published in article PMC4076210, “Discovery of Novel AKT Inhibitors with Enhanced Anti-Tumor Effects in Combination with the MEK Inhibitor” (PLoS ONE, 2014).
Like-named read-outs stand apart in the source and are kept apart here.

Key:
Assay in all cases: Kinase panel
[1] = target: T1, NEK7(h) (Homo sapiens, UniProt Q8TDX7); format: biochemical
T1 construct: purchased Millipore KinaseProfiler

[2] = target: T2, ZIPK(h) (Homo sapiens, UniProt O43293); format: biochemical
T2 construct: purchased Millipore KinaseProfiler

[3] = target: T3, Abl(Y253F)(h) (Homo sapiens, UniProt P00519, Y253F); format: biochemical
T3 construct: purchased Millipore KinaseProfiler

[4] = target: T4, PKCμ(h) (Homo sapiens, UniProt Q15139); format: biochemical
T4 construct: purchased Millipore KinaseProfiler
T4 sequence (Q15139 1-912): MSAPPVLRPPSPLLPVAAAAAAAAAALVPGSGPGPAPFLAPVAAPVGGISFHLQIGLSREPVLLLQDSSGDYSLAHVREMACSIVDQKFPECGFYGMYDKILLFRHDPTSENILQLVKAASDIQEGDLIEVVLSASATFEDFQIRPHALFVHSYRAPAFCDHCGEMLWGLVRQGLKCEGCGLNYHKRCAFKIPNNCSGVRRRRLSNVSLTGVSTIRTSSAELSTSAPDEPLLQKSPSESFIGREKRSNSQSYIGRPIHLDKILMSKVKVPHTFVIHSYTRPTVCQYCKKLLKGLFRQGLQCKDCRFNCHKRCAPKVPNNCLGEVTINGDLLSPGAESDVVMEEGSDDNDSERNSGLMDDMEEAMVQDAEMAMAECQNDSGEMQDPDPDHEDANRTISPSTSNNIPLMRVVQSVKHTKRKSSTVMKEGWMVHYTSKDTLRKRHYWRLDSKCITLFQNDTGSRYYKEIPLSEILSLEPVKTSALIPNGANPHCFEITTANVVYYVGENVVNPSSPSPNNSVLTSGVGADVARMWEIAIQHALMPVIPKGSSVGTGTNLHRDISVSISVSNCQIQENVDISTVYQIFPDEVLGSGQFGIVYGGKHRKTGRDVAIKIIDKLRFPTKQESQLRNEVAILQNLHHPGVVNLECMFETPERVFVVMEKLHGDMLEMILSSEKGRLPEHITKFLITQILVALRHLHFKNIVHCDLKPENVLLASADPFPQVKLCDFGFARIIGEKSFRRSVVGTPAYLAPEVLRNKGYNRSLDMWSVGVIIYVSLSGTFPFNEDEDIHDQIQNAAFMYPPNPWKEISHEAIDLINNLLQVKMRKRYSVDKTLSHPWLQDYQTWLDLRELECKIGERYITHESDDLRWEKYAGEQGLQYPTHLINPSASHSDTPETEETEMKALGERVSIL

[5] = target: T5, Tie2(R849W)(h) (Homo sapiens, UniProt Q02763, R849W); format: biochemical
T5 construct: purchased Millipore KinaseProfiler

[6] = target: T6, PAK3(h) (Homo sapiens, UniProt O75914); format: biochemical
T6 construct: purchased Millipore KinaseProfiler

[7] = target: T7, CDK5/p25(h) (Homo sapiens, UniProt Q00535); format: biochemical
T7 construct: purchased Millipore KinaseProfiler

[8] = target: T8, CK2α2(h) (Homo sapiens, UniProt P19784); format: biochemical
T8 construct: purchased Millipore KinaseProfiler

[9] = target: T9, MSK1(h) (Homo sapiens, UniProt O75582); format: biochemical
T9 construct: purchased Millipore KinaseProfiler

[10] = tested on: MLCK(h); format: biochemical, human
[11] = target: T10, ALK4(h) (Homo sapiens, UniProt P36896); format: biochemical
T10 construct: purchased Millipore KinaseProfiler
T10 sequence (P36896 24-505): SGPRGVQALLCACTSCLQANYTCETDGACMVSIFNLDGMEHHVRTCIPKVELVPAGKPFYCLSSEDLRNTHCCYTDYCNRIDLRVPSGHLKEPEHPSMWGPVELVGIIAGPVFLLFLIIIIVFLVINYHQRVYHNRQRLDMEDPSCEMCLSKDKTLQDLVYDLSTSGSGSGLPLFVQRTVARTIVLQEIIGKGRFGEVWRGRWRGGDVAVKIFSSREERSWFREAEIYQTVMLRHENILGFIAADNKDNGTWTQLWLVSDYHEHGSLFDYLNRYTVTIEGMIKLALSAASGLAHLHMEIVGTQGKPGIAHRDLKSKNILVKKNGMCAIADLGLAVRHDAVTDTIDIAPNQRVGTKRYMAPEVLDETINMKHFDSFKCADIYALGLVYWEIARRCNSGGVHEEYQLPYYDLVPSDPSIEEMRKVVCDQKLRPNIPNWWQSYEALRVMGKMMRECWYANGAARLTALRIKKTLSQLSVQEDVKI

[12] = target: T11, Rsk1(r) (Rattus norvegicus, UniProt Q63531); format: biochemical
T11 construct: purchased Millipore KinaseProfiler

[13] = target: T12, CDK2/cyclinE(h) (Homo sapiens, UniProt P24941); format: biochemical
T12 construct: purchased Millipore KinaseProfiler

[14] = target: T13, JNK2α2(h) (Homo sapiens, UniProt P45984); format: biochemical
T13 construct: purchased Millipore KinaseProfiler

[15] = target: T14, SGK(h) (Homo sapiens, UniProt O00141); format: biochemical
T14 construct: purchased Millipore KinaseProfiler
T14 sequence (O00141 1-431): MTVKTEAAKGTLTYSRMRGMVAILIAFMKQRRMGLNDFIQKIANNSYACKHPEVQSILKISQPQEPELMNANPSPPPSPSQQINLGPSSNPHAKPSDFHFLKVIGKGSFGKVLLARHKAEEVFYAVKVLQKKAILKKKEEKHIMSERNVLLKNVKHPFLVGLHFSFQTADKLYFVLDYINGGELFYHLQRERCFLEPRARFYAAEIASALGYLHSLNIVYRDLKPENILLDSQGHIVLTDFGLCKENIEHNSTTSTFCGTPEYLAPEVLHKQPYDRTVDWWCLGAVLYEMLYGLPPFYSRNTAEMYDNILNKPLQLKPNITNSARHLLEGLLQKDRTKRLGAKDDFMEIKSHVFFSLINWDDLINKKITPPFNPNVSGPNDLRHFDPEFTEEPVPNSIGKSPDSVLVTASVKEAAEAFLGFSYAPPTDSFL

T8 sequence (P19784 whole entry): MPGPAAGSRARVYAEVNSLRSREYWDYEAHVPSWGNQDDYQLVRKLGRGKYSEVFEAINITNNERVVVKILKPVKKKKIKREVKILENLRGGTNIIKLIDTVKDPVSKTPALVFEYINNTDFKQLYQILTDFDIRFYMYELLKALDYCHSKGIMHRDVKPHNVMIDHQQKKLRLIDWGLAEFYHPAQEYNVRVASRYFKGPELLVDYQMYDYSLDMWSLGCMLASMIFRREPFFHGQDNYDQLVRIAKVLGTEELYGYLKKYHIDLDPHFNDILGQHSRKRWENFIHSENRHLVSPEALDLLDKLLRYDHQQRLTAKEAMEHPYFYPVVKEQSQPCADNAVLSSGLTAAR
T13 sequence (P45984 whole entry): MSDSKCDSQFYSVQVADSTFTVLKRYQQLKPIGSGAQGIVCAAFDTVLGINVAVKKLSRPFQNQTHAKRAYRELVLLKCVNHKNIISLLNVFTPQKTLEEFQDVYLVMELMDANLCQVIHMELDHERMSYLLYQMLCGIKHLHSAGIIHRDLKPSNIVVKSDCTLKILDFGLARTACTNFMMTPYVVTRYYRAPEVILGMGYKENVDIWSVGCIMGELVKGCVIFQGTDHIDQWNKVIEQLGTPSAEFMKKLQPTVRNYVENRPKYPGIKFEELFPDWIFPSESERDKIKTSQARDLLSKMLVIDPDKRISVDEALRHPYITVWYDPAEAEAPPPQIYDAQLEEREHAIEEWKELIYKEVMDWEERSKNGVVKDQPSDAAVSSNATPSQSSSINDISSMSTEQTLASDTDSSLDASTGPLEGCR
T5 sequence (Q02763 23-1124 R849W): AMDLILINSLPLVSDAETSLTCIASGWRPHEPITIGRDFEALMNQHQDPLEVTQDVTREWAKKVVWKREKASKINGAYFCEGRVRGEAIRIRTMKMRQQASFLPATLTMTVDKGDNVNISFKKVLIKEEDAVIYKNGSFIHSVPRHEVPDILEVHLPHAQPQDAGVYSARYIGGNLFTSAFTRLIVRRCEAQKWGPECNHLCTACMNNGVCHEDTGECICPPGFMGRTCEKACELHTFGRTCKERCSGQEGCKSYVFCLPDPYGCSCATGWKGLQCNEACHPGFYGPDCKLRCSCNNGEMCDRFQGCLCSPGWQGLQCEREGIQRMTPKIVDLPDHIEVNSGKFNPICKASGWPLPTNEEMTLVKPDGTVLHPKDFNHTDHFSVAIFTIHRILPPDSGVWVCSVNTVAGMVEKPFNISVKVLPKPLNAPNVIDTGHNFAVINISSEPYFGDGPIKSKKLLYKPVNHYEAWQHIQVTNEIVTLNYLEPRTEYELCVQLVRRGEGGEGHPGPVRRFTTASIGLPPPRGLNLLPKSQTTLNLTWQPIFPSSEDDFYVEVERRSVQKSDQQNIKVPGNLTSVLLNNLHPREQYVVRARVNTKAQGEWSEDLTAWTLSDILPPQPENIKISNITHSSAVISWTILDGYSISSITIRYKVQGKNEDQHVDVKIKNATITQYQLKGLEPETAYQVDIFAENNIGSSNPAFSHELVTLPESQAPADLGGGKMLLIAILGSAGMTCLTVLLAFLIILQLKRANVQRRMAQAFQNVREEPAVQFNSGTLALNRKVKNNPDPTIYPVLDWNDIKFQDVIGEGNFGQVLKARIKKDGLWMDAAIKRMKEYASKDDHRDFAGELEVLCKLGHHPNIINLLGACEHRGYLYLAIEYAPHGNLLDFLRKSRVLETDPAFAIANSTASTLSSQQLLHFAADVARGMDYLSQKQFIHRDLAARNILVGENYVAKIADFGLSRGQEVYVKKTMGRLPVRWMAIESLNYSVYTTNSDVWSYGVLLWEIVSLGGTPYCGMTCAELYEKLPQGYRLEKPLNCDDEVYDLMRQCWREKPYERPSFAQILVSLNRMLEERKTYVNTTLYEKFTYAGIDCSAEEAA
T7 sequence (Q00535 whole entry): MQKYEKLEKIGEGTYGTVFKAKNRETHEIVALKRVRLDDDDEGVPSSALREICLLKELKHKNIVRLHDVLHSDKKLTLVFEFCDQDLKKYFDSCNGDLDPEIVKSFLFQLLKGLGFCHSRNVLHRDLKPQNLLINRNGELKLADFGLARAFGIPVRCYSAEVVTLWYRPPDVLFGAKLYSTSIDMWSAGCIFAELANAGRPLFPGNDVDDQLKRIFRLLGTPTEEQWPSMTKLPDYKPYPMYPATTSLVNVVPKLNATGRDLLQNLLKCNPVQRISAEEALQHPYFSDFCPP
T7 sequence (Q15078 99-307 partner limits assumed): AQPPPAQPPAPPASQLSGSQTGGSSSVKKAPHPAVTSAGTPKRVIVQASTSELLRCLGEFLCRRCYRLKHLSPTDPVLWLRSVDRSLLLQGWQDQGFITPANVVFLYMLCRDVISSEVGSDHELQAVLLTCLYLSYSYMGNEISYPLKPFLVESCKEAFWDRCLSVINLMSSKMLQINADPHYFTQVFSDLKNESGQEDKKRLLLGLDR
T2 sequence (O43293 whole entry): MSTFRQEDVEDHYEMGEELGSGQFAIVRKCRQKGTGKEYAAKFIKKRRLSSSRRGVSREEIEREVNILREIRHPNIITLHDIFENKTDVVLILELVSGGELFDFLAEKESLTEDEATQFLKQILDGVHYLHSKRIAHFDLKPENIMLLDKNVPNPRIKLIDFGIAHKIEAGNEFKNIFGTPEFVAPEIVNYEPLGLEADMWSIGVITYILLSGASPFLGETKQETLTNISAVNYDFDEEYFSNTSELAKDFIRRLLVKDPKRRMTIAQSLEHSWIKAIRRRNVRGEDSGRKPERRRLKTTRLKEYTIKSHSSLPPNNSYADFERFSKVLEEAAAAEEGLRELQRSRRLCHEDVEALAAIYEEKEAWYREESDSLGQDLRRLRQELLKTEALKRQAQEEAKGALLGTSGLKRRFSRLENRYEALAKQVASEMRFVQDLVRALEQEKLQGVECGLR
T1 sequence (Q8TDX7 whole entry): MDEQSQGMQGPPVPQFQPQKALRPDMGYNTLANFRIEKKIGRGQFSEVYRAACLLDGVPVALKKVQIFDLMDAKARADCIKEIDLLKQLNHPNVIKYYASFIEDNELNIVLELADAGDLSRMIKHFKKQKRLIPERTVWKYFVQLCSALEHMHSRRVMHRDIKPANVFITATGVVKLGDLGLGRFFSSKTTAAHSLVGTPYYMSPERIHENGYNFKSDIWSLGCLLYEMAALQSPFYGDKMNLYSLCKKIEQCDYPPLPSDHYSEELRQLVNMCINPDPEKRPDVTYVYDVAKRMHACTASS
T11 sequence (Q63531 whole entry): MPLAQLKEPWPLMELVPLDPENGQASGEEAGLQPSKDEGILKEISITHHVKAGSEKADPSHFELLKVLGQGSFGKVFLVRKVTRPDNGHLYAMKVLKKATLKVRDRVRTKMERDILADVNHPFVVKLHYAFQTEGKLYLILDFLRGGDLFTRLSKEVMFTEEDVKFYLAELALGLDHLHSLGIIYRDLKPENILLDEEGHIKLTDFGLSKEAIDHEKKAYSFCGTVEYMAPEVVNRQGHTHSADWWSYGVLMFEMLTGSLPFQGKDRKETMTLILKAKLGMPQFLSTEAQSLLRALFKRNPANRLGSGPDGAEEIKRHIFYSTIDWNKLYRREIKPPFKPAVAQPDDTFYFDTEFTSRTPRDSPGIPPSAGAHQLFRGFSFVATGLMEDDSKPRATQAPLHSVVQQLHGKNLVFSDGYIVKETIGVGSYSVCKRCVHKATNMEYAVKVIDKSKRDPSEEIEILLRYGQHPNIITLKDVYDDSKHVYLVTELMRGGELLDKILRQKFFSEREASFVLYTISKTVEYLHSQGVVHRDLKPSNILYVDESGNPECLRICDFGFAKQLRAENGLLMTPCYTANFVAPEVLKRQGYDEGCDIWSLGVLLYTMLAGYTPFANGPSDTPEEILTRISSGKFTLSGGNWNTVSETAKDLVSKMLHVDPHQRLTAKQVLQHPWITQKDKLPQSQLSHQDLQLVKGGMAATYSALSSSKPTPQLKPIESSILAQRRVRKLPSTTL
T6 sequence (O75914 whole entry): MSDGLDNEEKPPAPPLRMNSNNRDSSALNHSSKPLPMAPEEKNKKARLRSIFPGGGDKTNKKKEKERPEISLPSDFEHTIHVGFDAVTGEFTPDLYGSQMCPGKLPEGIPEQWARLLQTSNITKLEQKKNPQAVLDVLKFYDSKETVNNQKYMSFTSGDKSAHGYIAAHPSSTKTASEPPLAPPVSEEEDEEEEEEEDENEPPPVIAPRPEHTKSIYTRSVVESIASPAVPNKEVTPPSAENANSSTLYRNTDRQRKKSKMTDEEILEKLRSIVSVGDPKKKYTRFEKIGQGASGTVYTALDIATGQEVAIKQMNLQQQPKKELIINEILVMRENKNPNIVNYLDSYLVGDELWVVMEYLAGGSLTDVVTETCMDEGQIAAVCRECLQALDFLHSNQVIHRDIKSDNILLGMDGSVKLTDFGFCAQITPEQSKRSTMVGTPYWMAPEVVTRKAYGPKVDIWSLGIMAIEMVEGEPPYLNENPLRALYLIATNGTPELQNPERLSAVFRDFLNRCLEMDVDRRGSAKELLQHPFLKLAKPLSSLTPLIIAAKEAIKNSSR

Cn1ncc(Cl)c1-c1cc(C(=O)N[C@H](CN)Cc2cccc(F)c2)sc1Cl [GSK2110183]
inhibition at 0.5 µM [1]: -8% | inhibition at 10 µM [1]: -12% | inhibition at 0.5 µM [2]: 0% | inhibition at 10 µM [2]: 62% | inhibition at 0.5 µM [3]: 2% | inhibition at 10 µM [3]: 9% | inhibition at 0.5 µM [4]: 27% | inhibition at 10 µM [4]: 81% | inhibition at 0.5 µM [5]: -8% | inhibition at 10 µM [5]: -9% | inhibition at 0.5 µM [6]: -2% | inhibition at 10 µM [6]: 62% | inhibition at 0.5 µM [7]: -4% | inhibition at 10 µM [7]: 28% | inhibition at 0.5 µM [8]: 2% | inhibition at 10 µM [8]: 4% | inhibition at 0.5 µM [9]: 85% | inhibition at 10 µM [9]: 98% | % Inhibition ([10]; 0.5 µM): 4% | % Inhibition ([10]; 10 µM): 60% | inhibition at 0.5 µM [11]: 3% | inhibition at 10 µM [11]: 0% | inhibition at 0.5 µM [12]: 24% | inhibition at 10 µM [12]: 89% | inhibition at 0.5 µM [13]: 3% | inhibition at 10 µM [13]: 12% | inhibition at 0.5 µM [14]: -15% | inhibition at 10 µM [14]: -13% | inhibition at 0.5 µM [15]: 36% | inhibition at 10 µM [15]: 87%

Cn1ncc(Cl)c1-c1cc(C(=O)N[C@H](CN)Cc2ccc(F)c(F)c2)oc1Cl [GSK2141795]
inhibition at 0.5 µM ([1]; 0.5 µM, read-out: % Inhibition): -9% | inhibition at 10 µM ([1]; 10 µM, read-out: % Inhibition): -32% | inhibition at 0.5 µM ([2]; 0.5 µM, read-out: % Inhibition): 19% | inhibition at 10 µM ([2]; 10 µM, read-out: % Inhibition): 78% | inhibition at 0.5 µM ([3]; 0.5 µM, read-out: % Inhibition): -18% | inhibition at 10 µM ([3]; 10 µM, read-out: % Inhibition): -11% | inhibition at 0.5 µM ([4]; 0.5 µM, read-out: % Inhibition): 37% | inhibition at 10 µM ([4]; 10 µM, read-out: % Inhibition): 91% | inhibition at 0.5 µM ([5]; 0.5 µM, read-out: % Inhibition): -8% | inhibition at 10 µM ([5]; 10 µM, read-out: % Inhibition): 11% | inhibition at 0.5 µM ([6]; 0.5 µM, read-out: % Inhibition): 6% | inhibition at 10 µM ([6]; 10 µM, read-out: % Inhibition): 28% | inhibition at 0.5 µM ([7]; 0.5 µM, read-out: % Inhibition): -8% | inhibition at 10 µM ([7]; 10 µM, read-out: % Inhibition): 37% | inhibition at 0.5 µM ([8]; 0.5 µM, read-out: % Inhibition): 1% | inhibition at 10 µM ([8]; 10 µM, read-out: % Inhibition): -5% | inhibition at 0.5 µM ([9]; 0.5 µM, read-out: % Inhibition): 90% | inhibition at 10 µM ([9]; 10 µM, read-out: % Inhibition): 95% | % Inhibition ([10]; 0.5 µM): 5% | % Inhibition ([10]; 10 µM): 58% | inhibition at 0.5 µM ([11]; 0.5 µM, read-out: % Inhibition): -8% | inhibition at 10 µM ([11]; 10 µM, read-out: % Inhibition): -18% | inhibition at 0.5 µM ([12]; 0.5 µM, read-out: % Inhibition): 57% | inhibition at 10 µM ([12]; 10 µM, read-out: % Inhibition): 95% | inhibition at 0.5 µM ([13]; 0.5 µM, read-out: % Inhibition): -2% | inhibition at 10 µM ([13]; 10 µM, read-out: % Inhibition): 29% | inhibition at 0.5 µM ([14]; 0.5 µM, read-out: % Inhibition): -15% | inhibition at 10 µM ([14]; 10 µM, read-out: % Inhibition): -23% | inhibition at 0.5 µM ([15]; 0.5 µM, read-out: % Inhibition): 47% | inhibition at 10 µM ([15]; 10 µM, read-out: % Inhibition): 90%
